This is an account of results in the Kinase Knowledgebase extract (Sharma et al. 2016).

Where only a bound is given, the exact number is not on record here.

The target in this experiment is MAPK14 (human) (UniProt Q16539). Briefly: Assessment of MAPK14 Kinase Activity.
Sequence of MAPK14 (human) (Q16539 whole entry, looked up): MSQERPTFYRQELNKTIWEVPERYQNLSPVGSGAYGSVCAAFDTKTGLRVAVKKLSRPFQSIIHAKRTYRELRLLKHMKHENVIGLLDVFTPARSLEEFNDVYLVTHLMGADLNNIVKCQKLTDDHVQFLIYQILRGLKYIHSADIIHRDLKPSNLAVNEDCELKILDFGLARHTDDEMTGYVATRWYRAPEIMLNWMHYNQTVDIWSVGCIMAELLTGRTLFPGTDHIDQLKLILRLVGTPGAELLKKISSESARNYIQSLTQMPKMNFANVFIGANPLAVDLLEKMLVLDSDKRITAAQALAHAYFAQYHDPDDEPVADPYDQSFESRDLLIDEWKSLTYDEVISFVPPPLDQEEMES

The term IC50 denotes the concentration needed to halve the response being measured. Higher therefore signals a need for much substance. The compound `Cc1cccc(C(O)c2c(C#N)sc3c2ccc(=O)n3-c2ccccc2)c1` (centres undefined) displayed an IC50 of at most 1000 nM. In the case of `CCOC(=O)c1sc2c(ccc(=O)n2-c2ccccc2)c1Cc1ccccc1`, the IC50 is at most 1000 nM. On to `N#Cc1sc2c(ccc(=O)n2-c2ccccc2)c1C(O)c1ccccc1` (centres undefined), for which the IC50 was at most 1000 nM. In turn, `CCOC(=O)c1sc2c(ccc(=O)n2-c2ccccc2)c1NS(=O)(=O)c1ccccc1` registered an IC50 of at most 1000 nM. With `CCOC(=O)c1sc2c(ccc(=O)n2-c2ccccc2)c1Oc1ccccc1`, the IC50 is at most 1000 nM. `CCOC(=O)c1sc2c(ccc(=O)n2-c2ccccc2)c1C(O)c1cccc(C)c1` (centres undefined) returned an IC50 of at most 1000 nM. The compound `CCOC(=O)c1sc2c(ccc(=O)n2-c2ccccc2)c1Sc1ccccc1` yielded an IC50 of at most 1000 nM. On to `CCOC(=O)c1sc2c(ccc(=O)n2-c2ccccc2)c1NNc1ccc(C)cc1`, for which the IC50 was at most 1000 nM. The compound `CCOC(=O)c1sc2c(ccc(=O)n2-c2ccccc2)c1CCc1ccccc1` returned an IC50 of at most 1000 nM. Regarding `CCOC(=O)c1sc2c(ccc(=O)n2-c2ccccc2)c1C(O)c1cccc(Cl)c1` (centres undefined), the IC50 was at most 1000 nM.

Compound `CCOC(=O)c1sc2c(ccc(=O)n2CC2CC2)c1C(O)c1ccccc1` (centres undefined) showed an IC50 of at most 1000 nM. The compound `N#Cc1sc2c(ccc(=O)n2-c2ccccc2)c1NCc1ccccc1` registered an IC50 of at most 1000 nM.

On to `CCOC(=O)c1sc2c(ccc(=O)n2-c2ccccc2)c1NCc1ccccc1`, for which the IC50 is at most 1000 nM.

Regarding `CCOC(=O)c1sc2c(ccc(=O)n2-c2ccccc2)c1NC(C)c1ccccc1` (centres undefined), the IC50 was at most 1000 nM. For `CCOC(=O)c1sc2c(ccc(=O)n2-c2ccccc2)c1C(O)c1ccccc1` (centres undefined), the IC50 is at most 1000 nM.

Compound `CCOC(=O)c1sc2c(ccc(=O)n2-c2ccccc2)c1C(O)c1cccc(C)n1` (centres undefined) displayed an IC50 of at most 1000 nM.

With `CCOC(=O)c1sc2c(ccc(=O)n2-c2ccccc2)c1NCc1c(F)cccc1F`, the IC50 was at most 1000 nM.

As for `NC(=O)c1sc2c(ccc(=O)n2-c2ccccc2)c1Sc1ccccc1`, the IC50 was at most 1000 nM. For `CCOC(=O)c1sc2c(ccc(=O)n2-c2ccccc2)c1Sc1cccc(C)c1`, the IC50 is at most 1000 nM.

Turning to `CCOC(=O)c1sc2c(ccc(=O)n2-c2ccccc2)c1S(=O)(=O)Nc1ccccc1`, the IC50 is at most 1000 nM. The compound `CCOC(=O)c1sc2c(ccc(=O)n2-c2ccccc2)c1NC(=O)c1ccc(N)cc1` displayed an IC50 of at most 1000 nM.

On to `CCOC(=O)c1sc2c(ccc(=O)n2-c2ccccc2)c1N(C)Cc1ccccc1`, for which the IC50 is at most 1000 nM. In turn, `CCOC(=O)c1sc2c(ccc(=O)n2-c2ccccc2)c1NCc1ccccn1` came in with an IC50 of at most 1000 nM. Next, `CCOC(=O)c1sc2c(ccc(=O)n2-c2ccccc2)c1NC(=O)c1ccccc1`: at most 1000 nM.
